Measured values taken from patent US4603132A, “Phenothiazine compounds with anti-bronchospastic activity and pharmaceutical compositions containing them” (priority 1984, dated 1986).
Where two headings read alike, the source gives them in different places.

Legend:
[1] = tested on: bronchial asthma; conditions: literature, in words; cited from earlier work
[2] = tested on: isolated ileum of guinea pig (ACh); experiment: spasm induced by ACh in the isolated ileum of guinea pig
[3] = tested on: isolated ileum of guinea pig (serotonine); experiment: spasm induced by serotonine in the isolated ileum of guinea pig
[4] = tested on: bronchospasm induced by ACh aerosol; conditions: for activity in bronchospasm induced by ACh aerosol: awake guinea pig, in words, i.v. in b22, mequitazine at doses up to 20 times higher or essentially subtoxic
[5] = tested on: isolated trachea of guinea pig (methacholine); conditions: for IC50: Cavia porcellus; for activity greater than mequitazine: isolated guinea pig trachea, methacholine
[6] = tested on: bronchospasm induced by histamine aerosol; conditions: for ED50: Cavia porcellus, iv
[7] = tested on: isolated ileum of guinea pig (PGF2 alpha); experiment: spasm induced by PGF2 alpha in the isolated ileum of guinea pig
[8] = tested on: isolated trachea of guinea pig (KCl); experiment: spasm induced by KCl in the isolated trachea of guinea pig; conditions: for IC50: Cavia porcellus
[9] = tested on: hypotension induced by ACh i.v.; experiment: inhibition of the hypotension induced by ACh i.v. in the anestetized rat (systemic effect; absorption by inhalation); type: in vivo; conditions: for absorption through inhalatory route: i.v. vs inhalation, in words
Source text: The absorption of compound (I) by inhalation in comparison with mequitazine has been studied by comparing their sistemic effects with intravenous and inhalatory routes. The inhibiting effect of the tested compounds on the hypotension induced by ACh i.v. in the anestetized rat has been used.

[10] = tested on: bronchospasm induced by ACh i.v.; conditions: for ED50: Cavia porcellus, iv, anestetized guinea pig, ACh i.v.
[11] = tested on: isolated ileum of guinea pig (histamine); experiment: spasm induced by histamine in the isolated ileum of guinea pig
[12] = tested on: bronchospasm; experiment: anti-bronchospastic activity (general statement); conditions: in words
[13] = acute toxicity test in the mouse; type: in vivo; conditions: for LD50: in vivo
[14] = tested on: isolated trachea of guinea pig (histamine); experiment: spasm induced by histamine in the isolated trachea of guinea pig; conditions: for IC50: Cavia porcellus
[15] = tested on: H1 receptors; conditions: literature, in words, cited from earlier work
[16] = listed as 3-(10-H-phenothiazin-methyl)-1-methyl-1-azoniabicyclo[2.2.2]-octane iodide
[17] = vs classic anti-histaminic drugs

SMILES | effect in bronchial asthma / bronchial hyperreactivity [1] | IC50 [5] | ED50 [6] | IC50 [8] | absorption through inhalatory route ([9]; anestetized rat) | ED50 ([10]; compound by inhalatory route) | ED50 ([10]; compound by venous route) | anti-bronchospastic activity [12] | LD50 ([13]; iv) | LD50 ([13]; oral route) | IC50 [14] | other results
CC(CN1c2ccccc2Sc2ccccc21)N(C)C (centres unmarked) [promethazine] | singularly inefficacious in the bronchial asthma | – | – | – | – | – | – | – | – | – | – | –
C[N+]12CCC(CC1)C(CN1c3ccccc3Sc3ccccc31)C2 (centres unmarked) [compound (I), 3-(10-H-phenothiazin-methyl)-1-methyl-1-azoniabicyclo[2.2.2]-octane iodide] | – | 0.034 µM | 0.12 µmol/kg | 38 µM | very poorly absorbed | 0.026 µmol/kg | 0.051 µmol/kg | powerful anti-bronchospastic activity | 3.15 mg/kg | ~700 mg/kg | 0.074 µM | times more active than mequitazine [2]: 7 times; times more active than mequitazine [3]: 6 times; ED50 ([4]; Cavia porcellus, iv): 0.41 µmol/kg; activity in bronchospasm induced by ACh aerosol [4]: intense and dose-dependent activity; activity in bronchospasm induced by ACh aerosol [4, 16]: remarkable power; activity greater than mequitazine [5]: 1200 times; activity greater than mequitazine [5, 16]: 1000 times; activity higher than that of mequitazine ([6]; awake guinea pig, histamine aerosol, i.v.): about 5 times; times more active than mequitazine [7]: 2 times; activity greater than mequitazine ([8]; isolated guinea pig trachea, KCl): 3 times; ED50 ([9]; Rattus norvegicus, iv): 1.17 µmol/kg; absorption lower than that of mequitazine ([9]; inhalatory route): at least 24 times; ED50 ([9]; inhibition of hypotension, anestetized rat, inhalatory administration): can not be calculated (25 μmol/kg); anti-bronchospastic activity higher than that of mequitazine ([10]; inhalatory route): 20 times; activity higher than that of mequitazine ([10]; venous route): 13 times; times more active than mequitazine [11]: 15 times; absorption by oral route ([13]; inferred from i.v. vs oral LD 50, in words): very modest; activity greater than mequitazine ([14]; isolated guinea pig trachea, histamine): 50 times
CN(C)CCC(c1ccc(Cl)cc1)c1ccccn1 (centres unmarked) [clopheniramine] | singularly inefficacious in the bronchial asthma | – | – | – | – | – | – | – | – | – | – | –
c1ccc2c(c1)Sc1ccccc1N2CC1CN2CCC1CC2 (centres unmarked) [mequitazine, reference compound] | protective action | 40 µM | 0.65 µmol/kg | 110 µM | complete absorption | 0.499 µmol/kg | 0.674 µmol/kg | very slightly active or even inactive | 23.7 mg/kg | ~350 mg/kg | 3.7 µM | ED50 ([9]; inhaled or nasal, inhibition of hypotension, anestetized rat, inhalatory administration, read-out: ED 50): 4.06 µmol/kg; ED50 ([9]; iv, inhibition of hypotension, anestetized rat, i.v. route, read-out: ED 50): 4.01 µmol/kg; action on H1 receptors [15]: histamine antagonism at the level of the H1 receptors; duration of action [15, 17]: long lasting action; side effects of the CNS level [15, 17]: scarcity of side effects
COc1ccc(CN(CCN(C)C)c2ccccn2)cc1 [mepyramine] | singularly inefficacious in the bronchial asthma | – | – | – | – | – | – | – | – | – | – | –
